# Data taken from patent publication US20240148664A1, “LIPID AND COMPOSITION” (SOGO PHARMACEUTICAL CO., LTD., priority 2021, published 2024).
# How the values were obtained:
# [1] = siRNA / mRNA encapsulation rate of lipid nanoparticle (RiboGreen); format: physicochemical; conditions: mRNA encapsulation rate of lipid nanoparticle (Table 3)
# Procedure: The siRNA encapsulation rate and the mRNA encapsulation rate of the lipid nanoparticle were obtained as follows. First, a surfactant (Sigma-Aldrich, Triton (registered trademark), X-100 (reducing type)) was added to the lipid nanoparticle-containing solution to disrupt the lipid nanoparticle to release the encapsulated siRNA or mRNA. The amounts of the lipid nanoparticle-containing solution and the surfactant were adjusted such that the siRNA or the mRNA was 2 pmol and the surfactant was 1% in 40 μL of the solution after adding the surfactant to the lipid nanoparticle-containing solution. Next, the RiboGreen reagent (reagent that reacts with siRNA to emit fluorescence, manufactured by Thermo Fisher Scientific, Quant-iT (registered trademark) RiboGreen (registered trademark) RNA Assay Kit) was added to the solution, and the fluorescence intensity was measured under conditions of an excitation wavelength of 480 nm and a fluorescence wavelength of 520 nm with a fluorescence intensity meter (manufactured by TECAN, Infinite M200). Specifically, 75 μL of the RiboGreen reagent diluted to 1/2000 was added to a diluted solution obtained by adding 65 μL of citrate buffer to 10 μL of the solution, and the fluorescence intensity was measured. This makes it possible to relatively measure the total amount of the siRNA or the total amount of the mRNA present in the solution.
# Subsequently, the RiboGreen reagent was added to the lipid nanoparticle-containing solution without adding a surfactant, and the fluorescence intensity was measured in the same manner with a fluorescence intensity meter. By not adding a surfactant, it is possible to relatively measure the amount of the siRNA or the mRNA free in the solution without being encapsulated in the lipid nanoparticle.
# Then, the fluorescence intensity obtained from the solution to which the surfactant was added obtained as described above was fluorescence intensity a, and the fluorescence intensity thus obtained from the solution to which no surfactant was added obtained as described above was fluorescence intensity b, and according to the expression (a−b)/a×100, the siRNA encapsulation rate (%) or the mRNA encapsulation rate (%) of the lipid nanoparticle was obtained. Each of fluorescence intensity a and fluorescence intensity b is a value obtained by subtracting a blank from the arithmetic average value of the results of three measurements for each solution. The blank was measured by carrying out the same operation on a well containing water containing no cell or lipid nanoparticle.
# NIH3T3 cells = assay: Evaluation of protein expression effect (luciferase luminescence), Cell experiment 2; format: cell-based; conditions: lipid nanoparticle containing mRNA, 100 ng mRNA/20 μL per well, 24 hours, amount of luminescence as index
# Procedure: (§1) For lipids (Ia), (Ib), and (Ie) of Examples 1, 2, and 5, a cell experiment was carried out by using HEK293T cells and NIH3T3 cells in order to evaluate lipid nanoparticles encapsulating an mRNA. By transfecting the cells with lipid nanoparticles and measuring the amount of a predetermined protein produced, the performance of the lipid nanoparticles used can be evaluated. Hereinafter, the procedure of the cell experiment will be shown.
# (§2) A. Seeding of Cells • (i) A liquid medium (DMEM High glucose, FBS+, P/S+) was temperature-controlled in an incubator set at 37° C. • (ii) A cryotube containing cells was taken out from a −80° C. freezer and thawed at once in the incubator set at 37° C. • (iii) A test tube was subjected to a centrifuge to precipitate the cells. • (iv) The supernatant was aspirated, and the liquid medium was added and gently tapped to disperse the cells. • (v) A small amount of the cells-dispersed liquid medium was collected, and the number of cells was observed and counted under a microscope. • (vi) The cells were seeded in three 24-well black plates such that the number of cells was 1×10^4 cells per well. The 24-well black plates were placed in an incubator, and the cells were cultured for 24 hours under conditions of 37° C. and 5% CO2.
# (§3) B. Transfection • (i) A lipid nanoparticle-containing solution including an mRNA was concentrated such that the mRNA concentration was 100 ng/20 μL (=0.005 μg/μL). • (ii) A liquid medium (DMEM High glucose, FBS-, P/S-) and FBS were warmed to 37° C., required amounts of the liquid medium and FBS were mixed (FBS concentration of liquid medium at this time: 12.5%), and the prepared liquid medium was filter-sterilized through a 0.22 μm filter. • (iii) The liquid medium supernatant in the 24-well black plates in which the cells were cultured was aspirated and 80 μL per well of the prepared liquid medium was added. • (iv) 20 μL per well of RFW and the lipid nanoparticle-containing solution adjusted to the above concentration was added. • (v) The 24-well black plates were placed in an incubator, and the cells were cultured for 24 hours under conditions of 37° C. and 5% CO2.
# (§4) C. Evaluation of Protein Expression Effect (Detection of Gaussia Luciferase (GLuc))
# (§5) Evaluation of the protein expression effect was carried out by using Gaussia Luciferase Assay Kit manufactured by Thermo Scientific. • (i) The cells cultured in B. (v) above were taken out from the incubator and allowed to stand at room temperature. • (ii) 20 μL of the supernatant in the plates was collected and added to a fresh 96-well white plate. • (iii) 100× Coelenterazine and Gaussia Glow Assay Buffer attached to the kit were returned to room temperature and mixed at 1:100 to prepare a solution. The prepared solution was added to the supernatant at 50 μL per well by using a multipipette. • (iv) The plate was shielded from light with aluminum foil, allowed to stand for 10 minutes, and then measured for the amount of luminescence with a plate reader (manufactured by TECAN, Infinite M200) (measurement time: 2 seconds), and the protein expression level was calculated by using the resulting amount of luminescence as an index.
# HEK293T cells = assay: as above; format: cell-based; conditions: lipid nanoparticle containing mRNA, 100 ng mRNA/20 μL per well, 24 hours, amount of luminescence as index
# Procedure: as §1, §2, §3, §4, §5
# [2] = Measurement of particle size, polydispersity index and zeta potential of lipid nanoparticle (Zetasizer); format: physicochemical
# Procedure: 30 μL of each of the dialyzed lipid nanoparticle-containing solutions obtained by the above operation was measured out, 800 μL of ultrapure water was added to dilute the lipid nanoparticle-containing solution, and the diluted preparation solution was used to measure the particle size (nm) and the polydispersity index (PDI) by using a Zetasizer (manufactured by Malvern Panalytical, Zetasizer nano Ultra). The particle size was evaluated by Z-average in ultrapure water. The zeta potential was measured by using pH 7.4 Tris-HCl as a dilute solution.
# [3] = tested on: HEK293T cells and NIH3T3 cells; assay: Evaluation of toxicity (CellTiter-Fluor Cell Viability Assay, CTF); format: cell-based; conditions: lipid nanoparticle containing mRNA; number of surviving cells relative to cells without lipid nanoparticle set at 1; one rating per lipid, printed on the HEK293T line
# Procedure: as §1
# as §2, with “CO2. […]” for “CO2.”
# D. Evaluation of Toxicity (CellTiter-Fluor (Registered Trademark) Cell Viability Assay) • (i) The CellTiter-Fluor (registered trademark) Cell Viability (CTF) Assay Reagent was completely thawed in a 37° C. water bath. • (ii) GF-AFC Substrate was uniformly mixed by using a vortex mixer. • (iii) The required amounts of Buffer and GF-AFC Substrate attached to the CTF Assay Reagent (Kit) were mixed at a mixing ratio of 10 mL:10 μL. • (iv) 100 μL per well of the mixed CTF Reagent mixture was added to a 24-well black plate containing the cells cultured in B. (v) above, and the plate was quickly shielded from light with aluminum foil, and then shaken on a plate shaker for 30 seconds. • (v) The plate was placed in an incubator, […], and the cells were cultured for 30 minutes under conditions of 37° C. and 5% CO2. • (vi) The fluorescence intensity was measured with a plate reader (excitation wavelength of 380 nm, fluorescence wavelength of 505 nm). Based on the obtained measurement results, the number of surviving cells was calculated with the fluorescence intensity of cells to which no lipid nanoparticle was added set at 1. […]
structure (smiles),measurement,setting,value
"CCCCCCCCCCCOC(=O)CCCCCN(CCO)CCCCCCCC(=O)OC(CCCCCCCC)CCCCCCCC [Reference Example 1, reference compound]",Encapsulation rate (%),[1],93%
same,Protein expression level,NIH3T3 cells,"7,000"
same,Protein expression level,HEK293T cells,"320,000"
same,PDI,[2]; lipid nanoparticle containing mRNA (Table 3),0.232
same,Zeta potential (mV),"[2]; lipid nanoparticle containing mRNA (Table 3), pH 7.4 Tris-HCl",−4.3 mV
same,Particle size (nm),"[2]; lipid nanoparticle containing mRNA, main lipid/DPPC/cholesterol=45/10/45 (r1: r1/DSPC/cholesterol/PEG2000-DMG=50/10/38.5/1.5)",64.4 nm
same,CTF Assay,[3],"⊚ (When the number of surviving cells was more than 0.80 and 1.00 or less, a rating of double-circle (excellent) was given)"
